Laboratory results as given in US5616563A, “Glutathione N-hydroxycarbamoyl thioesters and method of inhibiting neoplastic growth” (University of Maryland Baltimore Campus, priority 1994, dated 1997).
Where two headings read alike, the source gives them in different places.

Key:
human erythrocyte Glx I = target: T1, human erythrocyte Glx I (Homo sapiens, UniProt Q04760); test: Inhibition of human erythrocyte glyoxalase I; assay type: biochemical
T1 construct: Human erythrocyte Glx I was purified to homogeneity from out-dated human blood; from tissue; host or cells: human erythrocytes (out-dated human blood)
T1 sequence (Q04760 2-184 limits assumed): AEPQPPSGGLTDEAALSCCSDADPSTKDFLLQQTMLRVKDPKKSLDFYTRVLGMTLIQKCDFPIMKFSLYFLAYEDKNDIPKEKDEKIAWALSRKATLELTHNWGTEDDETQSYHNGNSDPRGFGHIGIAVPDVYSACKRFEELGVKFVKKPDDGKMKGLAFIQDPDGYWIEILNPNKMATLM

[1] = system: normal human VA-2 fibroblasts; test: Toxicity to normal human fibroblasts; assay type: cell-based
[2] = system: Human Leukemia 60 (HL60) cells; test: Growth inhibition and kill of human leukemia 60 cells; assay type: cell-based
Protocol: The observation that compounds 2 and 6(c) inhibit tumor cell growth, but were not strongly cytotoxic to tumor cells at the concentrations tested, prompted the synthesis of diethyl esters of compounds 6(a), 6(b), and 6(c). These derivatives were then tested with human leukemia cells (HL60 cells) grown in RPMI/fetal calf serum medium at 37° C.
^c Concentration for 50% cell kill.

CNS Cancer (SNB-75) = test: NCI tumor cell growth inhibition, CNS cancer SNB-75
Excerpt: (§1) ^a Concentration for 50% cell growth inhibition versus nodrug
(§2) ^b Concentration for total cell growth inhibition versus nodrug

glyoxalase I = target: T2, glyoxalase I (Saccharomyces cerevisiae, UniProt P50107); details: concentration of 50% inhibition of glyoxalase I; c = No inhibitory activity was detected; read-out: I50; cited from earlier work
T2 sequence (P50107 1-326): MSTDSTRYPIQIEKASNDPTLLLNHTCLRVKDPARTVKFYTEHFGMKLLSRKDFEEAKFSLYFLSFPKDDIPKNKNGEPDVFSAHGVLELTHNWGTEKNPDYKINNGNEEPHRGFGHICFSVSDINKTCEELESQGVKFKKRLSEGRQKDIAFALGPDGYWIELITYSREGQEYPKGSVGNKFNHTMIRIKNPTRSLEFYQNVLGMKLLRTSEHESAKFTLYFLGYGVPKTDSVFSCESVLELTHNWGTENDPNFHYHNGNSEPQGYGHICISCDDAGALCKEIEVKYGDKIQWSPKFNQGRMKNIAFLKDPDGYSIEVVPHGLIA

[3] = of substituent R; cited from earlier work
KB cells = details: concentration for 50% kill of the cell culture; cited from earlier work
L1210 leukemia = details: concentration for 50% kill of the cell culture; cited from earlier work
[4] = target: bovine liver glyoxalase II (Bos taurus, UniProt Q3B7M2); test: Substrate and inhibition studies with bovine liver glyoxalase II
Protocol: (§3) The standard errors for Vm and Km were obtained by analysis of the initial rate data using the HYPER program of Cleland.
(§4) ^a HEPES buffer (100 mM, pH 7.4), 25° C.
(§5) ^b Listed values are relative to Vm for SD-lactoylglutathione.
(§6) ^c Inhibition constants obtained from using the enediol analogs as

Renal Cancer (ACHN) = test: NCI tumor cell growth inhibition, renal cancer ACHN
Excerpt: as §1, §2

Ovarian Cancer (SK-OV-3) = test: NCI tumor cell growth inhibition, ovarian cancer SK-OV-3
Excerpt: as §1, §2

[5] = system: Non-Small Cell Lung Cancer (HOP-18); test: NCI tumor cell growth inhibition, non-small cell lung cancer HOP-18
Excerpt: as §1, §2

yeast Glx I [6] = target: T3, yeast Glx I (Saccharomyces cerevisiae, UniProt P50107); test: Inhibition of yeast glyoxalase I; assay type: biochemical
T3 construct: purchased Sigma Chem. Co
T3 sequence (P50107 1-326): T2 sequence (P50107 1-326)

Colon Cancer (KMZOLZ) = test: NCI tumor cell growth inhibition, colon cancer KMZOLZ
Excerpt: as §1, §2

Melanoma (UACC-62) = test: NCI tumor cell growth inhibition, melanoma UACC-62
Excerpt: as §1, §2

yeast Glx I [7] = target: T3, yeast Glx I; details: Hamilton et al. 1992; cited from earlier work
[8] = system: CN(O)C(=O)SC[C@H](NC(=O)CC[C@H](N)C(=O)O)C(=O)NCC(=O)O; test: purified protein, by the assay type; details: other: as substrate, HEPES buffer (100 mM, pH 7.4), 25° C.
Protocol: as §3, §4, §5, §6

[9] = Homo sapiens, 48 h, read-out: GI (concentration for 50% cell growth inhibition)
[10] = Homo sapiens, SK-OV-3, read-out: inhibition of cell growth

CCOC(=O)CNC(=O)[C@H](CSC(=O)N(O)c1ccccc1)NC(=O)CC[C@H](N)C(=O)OCC [6a(Et)2]
Ki (human erythrocyte Glx I; Table 7, read-out: Ki (competitive inhibition constants with human erythrocyte glyoxalase I)): > 1000 µM | inhibition of cell growth ([1]; VA-2 fibroblasts, 250 to 300 μM): 50-80% | cell killing ([2]; HL60, 250 to 300 μM): about 100% | LC50 (concentration for 50% cell kill) ([2]; HL60, 72 hr. incubation): 200 µM | TGI (concentration for total cell growth inhibition) ([2]; HL60, 72 hr. incubation): 126 µM | IC50 ([2]; HL60, 72 hr. incubation, read-out: GI (concentration for 50% cell growth inhibition)): 63 µM | toxicity versus corresponding unethylated species ([2]; HL60 cells, RPMI/fetal calf serum medium, 37° C.): more toxic

CN(O)C(=O)SC[C@H](NC(=O)CC[C@H](N)C(=O)O)C(=O)NCC(=O)O [Compound 2, S-(N-Hydroxy N-Methyl Carbamoyl) Glutathione]
Ki (human erythrocyte Glx I; Phosphate buffer (50 mM, pH 7), 25° C., read-out: Ki Erythrocytes): 1.95 ± 0.21 µM | inhibition of cell growth (CNS Cancer (SNB-75); CNS human cancer cells, 10^-4 M or lower): less than 10% | IC50 (CNS Cancer (SNB-75); Homo sapiens, SNB-75, 48 h, read-out: GI (concentration for 50% cell growth inhibition)): 630 µM | inhibition at 1000 µM (CNS Cancer (SNB-75); Homo sapiens, SNB-75, read-out: inhibition of cell growth): 60% | LC50 (concentration for 50% cell kill) (CNS Cancer (SNB-75); SNB-75, 48 hrs. incubation): > 1000 µM | TGI (concentration for total cell growth inhibition) (CNS Cancer (SNB-75); SNB-75, 48 hrs. incubation): > 1000 µM | IC50 (glyoxalase I): 9 µM | π (Hansch hydrophobicity constant) [3]: 0.5 | LD50 (KB) (KB cells): 0.11 mM | LD50 (L1210) (L1210 leukemia): > 0.20 mM | Ki [4]: 426 ± 77 µM | Vm (rel.) ([4]; relative to Vm for S-D-lactoylglutathione, HEPES buffer (100 mM, pH 7.4), 25° C.): (1.7 ± 0.1) × 10^-5 | LC50 (concentration for 50% cell kill) (Renal Cancer (ACHN); 48 hrs. incubation): > 1000 µM | TGI (concentration for total cell growth inhibition) (Renal Cancer (ACHN); 48 hrs. incubation): > 1000 µM | IC50 (Renal Cancer (ACHN); [9]): > 1000 µM | inhibition at 1000 µM (Renal Cancer (ACHN); Homo sapiens, read-out: inhibition of cell growth): ~40% | effect on cell growth (Renal Cancer (ACHN); concentrations lower than 10^-3 M): no significant effect | IC50 (Ovarian Cancer (SK-OV-3); Homo sapiens, SK-OV-3, 48 h, read-out: GI (concentration for 50% cell growth inhibition)): 316 µM | inhibition at 100 µM (Ovarian Cancer (SK-OV-3); [10]): 20% | inhibition at 1000 µM (Ovarian Cancer (SK-OV-3); [10]): > 90% | LC50 (concentration for 50% cell kill) (Ovarian Cancer (SK-OV-3); SK-OV-3, 48 hrs. incubation): > 1000 µM | TGI (concentration for total cell growth inhibition) (Ovarian Cancer (SK-OV-3); SK-OV-3, 48 hrs. incubation): ~ 1000 μM | LC50 (concentration for 50% cell kill) ([5]; HOP-18, 48 hrs. incubation): > 1000 µM | TGI (concentration for total cell growth inhibition) ([5]; HOP-18, 48 hrs. incubation): > 1000 µM | IC50 ([5]; Homo sapiens, HOP-18, 48 h, read-out: GI (concentration for 50% cell growth inhibition)): 630 µM | inhibition at 1000 µM ([5]; Homo sapiens, HOP-18, read-out: cell growth inhibition): > 65% | binding energy difference versus deoxy analog 2(a) (yeast Glx I [6]): about 2.6 Kcal/mole | binds more tightly to active site of Glx I than deoxy analog 2(a) (yeast Glx I [6]): 80 fold | binds more tightly to yeast Glx I than S-D-lactoylglutathione (yeast Glx I [6]): over 30 fold | Ki (yeast Glx I [6]; read-out: Ki yeast Glx I): 68 µM | IC50 (Colon Cancer (KMZOLZ); [9]): > 1000 µM | inhibition of cell growth (Colon Cancer (KMZOLZ); KMZOL2, "At this concentration" (printed after 10^-4 and below)): < 30% | effect on cell growth (Colon Cancer (KMZOLZ); KMZOL2, concentrations of 10^-4 and below): no significant effect | LC50 (concentration for 50% cell kill) (Colon Cancer (KMZOLZ); KMZOLZ, 48 hrs. incubation): > 1000 µM | TGI (concentration for total cell growth inhibition) (Colon Cancer (KMZOLZ); KMZOLZ, 48 hrs. incubation): > 1000 µM | IC50 (Melanoma (UACC-62); Homo sapiens, UACC-62, 48 h, read-out: GI (concentration for 50% cell growth inhibition)): > 1000 µM | inhibition at 1000 µM (Melanoma (UACC-62); Homo sapiens, UACC-62, read-out: inhibition of cell growth): 30% | effect on cell growth (Melanoma (UACC-62); UACC-62, 10^-4 or lower): ineffective | LC50 (concentration for 50% cell kill) (Melanoma (UACC-62); UACC-62, 48 hrs. incubation): > 1000 µM | TGI (concentration for total cell growth inhibition) (Melanoma (UACC-62); UACC-62, 48 hrs. incubation): > 1000 µM | higher affinity of the enzyme versus glycyl-ethyl ester 2(Et) (yeast Glx I [7]): 10 fold

C[C@@H](O)C(=O)SC[C@H](NC(=O)CC[C@H](N)C(=O)O)C(=O)NCC(=O)O [S-D-lactoylglutathione, reference compound]
IC50 (glyoxalase I): 77 µM | LD50 (KB) (KB cells): 0.07 mM | LD50 (L1210) (L1210 leukemia): 0.08 mM | Ki (yeast Glx I [6]): 2230 µM

N[C@@H](CCC(=O)N[C@@H](CSCc1ccc(Br)cc1)C(=O)NCC(=O)O)C(=O)O [S-p-Bromobenzyl glutathione, reference compound]
LC50 ([1]; fibroblasts, text b533): 50 µM | LC50 ([2]; HL60 cells, text b533): 50 µM

bovine liver glyoxalase II (Bos taurus)
Km [8]: 478 µM
